Assay results: the NIST ThermoML archive (doi:10.1016/j.jct.2017.08.004)

Test: molar heat capacity at constant pressure
Conditions: 101.33 kPa, Crystal

OC[C@@H](O)[C@@H](O)[C@H](O)[C@H](O)CO [D-mannitol]
molar heat capacity at constant pressure [J/K/mol]
Conditions | Small sample (50 mg) DSC | relaxation calorimetry
1 K | – | 0.001199
1.923 K | – | 0.006707
2 K | – | 0.007583
2.139 K | – | 0.009192
2.373 K | – | 0.01256
2.634 K | – | 0.01689
2.928 K | – | 0.02301
3 K | – | 0.02469
3.249 K | – | 0.03152
3.602 K | – | 0.04303
3.997 K | – | 0.05809
4 K | – | 0.05872
4.435 K | – | 0.07904
4.92 K | – | 0.1115
5 K | – | 0.1167
5.459 K | – | 0.1535
6 K | – | 0.2067
6.057 K | – | 0.2121
6.719 K | – | 0.2951
7 K | – | 0.3376
7.454 K | – | 0.4159
8 K | – | 0.5187
8.269 K | – | 0.5829
9 K | – | 0.7614
9.171 K | – | 0.8041
10 K | – | 1.071
10.2 K | – | 1.131
11.29 K | – | 1.565
12.52 K | – | 2.163
13.89 K | – | 2.945
15 K | – | 3.67
15.42 K | – | 3.976
17.11 K | – | 5.278
18.99 K | – | 6.927
20 K | – | 7.832
21.08 K | – | 8.9
23.4 K | – | 11.29
25 K | – | 13.01
25.98 K | – | 14.06
28.84 K | – | 17.28
30 K | – | 18.66
32.02 K | – | 20.91
35 K | – | 24.4
35.55 K | – | 25.01
39.45 K | – | 29.53
40 K | – | 30.07
43.79 K | – | 34.41
45 K | – | 35.64
48.59 K | – | 39.53
50 K | – | 41.11
53.92 K | – | 45.29
55 K | – | 46.48
59.84 K | – | 51.45
60 K | – | 51.67
65 K | – | 56.63
66.4 K | – | 58.03
70 K | – | 61.48
73.71 K | – | 64.84
75 K | – | 66.19
80 K | – | 70.77
81.8 K | – | 72.99
85 K | – | 75.22
90 K | – | 79.54
90.8 K | – | 80.09
95 K | – | 83.75
100 K | – | 87.87
100.74 K | – | 87.67
110 K | – | 95.83
110.88 K | – | 96.15
120 K | – | 103.5
120.83 K | – | 104.57
130 K | – | 110.93
130.91 K | – | 112.04
140 K | – | 118.19
140.97 K | – | 119.24
150 K | – | 125.32
151.12 K | – | 126.15
160 K | – | 132.36
161.2 K | – | 133.18
170 K | – | 139.33
171.28 K | – | 140.05
180 K | – | 146.27
181.37 K | – | 147.35
188.15 K | 143.51 | –
189.15 K | 144.52 | –
190 K | – | 153.2
190.15 K | 145.73 | –
191.15 K | 146.73 | –
191.44 K | – | 154.23
192.15 K | 147.51 | –
193.15 K | 148.54 | –
194.15 K | 149.99 | –
195.15 K | 151.06 | –
196.15 K | 152.24 | –
197.15 K | 153.48 | –
198.15 K | 154.54 | –
199.15 K | 155.53 | –
200 K | – | 160.12
200.15 K | 156.46 | –
201.15 K | 157.4 | –
201.56 K | – | 160.73
202.15 K | 158.14 | –
203.15 K | 158.99 | –
204.15 K | 159.96 | –
205.15 K | 160.76 | –
206.15 K | 161.64 | –
207.15 K | 162.47 | –
208.15 K | 163.24 | –
209.15 K | 163.78 | –
210 K | – | 167.07
210.15 K | 164.68 | –
211.15 K | 165.46 | –
211.67 K | – | 167.61
212.15 K | 166.24 | –
213.15 K | 167.09 | –
214.15 K | 167.92 | –
215.15 K | 168.49 | –
216.15 K | 169.55 | –
217.15 K | 170.24 | –
218.15 K | 170.94 | –
219.15 K | 171.88 | –
220 K | – | 174.05
220.15 K | 172.81 | –
221.15 K | 173.38 | –
221.78 K | – | 175.44
222.15 K | 174.15 | –
223.15 K | 174.98 | –
224.15 K | 175.72 | –
225.15 K | 176.52 | –
226.15 K | 177.3 | –
227.15 K | 177.96 | –
228.15 K | 178.66 | –
229.15 K | 179.32 | –
230 K | – | 181.07
230.15 K | 179.98 | –
231.15 K | 180.68 | –
231.88 K | – | 182.4
232.15 K | 181.3 | –
233.15 K | 182.34 | –
234.15 K | 182.94 | –
235.15 K | 183.75 | –
236.15 K | 184.67 | –
237.15 K | 185.22 | –
238.15 K | 186 | –
239.15 K | 186.79 | –
240 K | – | 188.14
240.15 K | 187.46 | –
241.15 K | 188.04 | –
241.89 K | – | 189.63
242.15 K | 188.69 | –
243.15 K | 189.39 | –
244.15 K | 190.16 | –
245.15 K | 190.77 | –
246.15 K | 191.37 | –
247.15 K | 192.19 | –
248.15 K | 192.92 | –
249.15 K | 193.73 | –
250 K | – | 195.26
250.15 K | 194.6 | –
251.15 K | 195.14 | –
252.03 K | – | 197.13
252.15 K | 195.91 | –
253.15 K | 196.71 | –
254.15 K | 197.56 | –
255.15 K | 198.46 | –
256.15 K | 199.17 | –
257.15 K | 199.9 | –
258.15 K | 200.87 | –
259.15 K | 201.58 | –
260 K | – | 202.45
260.15 K | 202.15 | –
261.15 K | 203.09 | –
262.09 K | – | 203.85
262.15 K | 203.84 | –
263.15 K | 204.4 | –
264.15 K | 205.1 | –
265.15 K | 205.89 | –
266.15 K | 206.4 | –
267.15 K | 207.11 | –
268.15 K | 207.89 | –
269.15 K | 208.64 | –
270 K | – | 209.71
270.15 K | 209.5 | –
271.15 K | 210.37 | –
272.12 K | – | 211.38
272.15 K | 211.22 | –
273.15 K | 211.63 | 212.01
274.15 K | 212.27 | –
275.15 K | 213.11 | –
276.15 K | 213.85 | –
277.15 K | 214.68 | –
278.15 K | 215.33 | –
279.15 K | 216.09 | –
280 K | – | 217.04
280.15 K | 216.75 | –
281.15 K | 217.54 | –
282.15 K | 218.34 | –
282.18 K | – | 219
283.15 K | 219.11 | –
284.15 K | 219.88 | –
285.15 K | 220.37 | –
286.15 K | 221.11 | –
287.15 K | 221.79 | –
288.15 K | 222.53 | –
